target: E3 ubiquitin-protein ligase CBL-B (Homo sapiens, UniProt Q13191); assay: Inhibition of biotin-tagged Cbl-b (unknown origin) assessed as reduction in LCK ubiquitination using His-LCK as substrate preincubated for 60 mins followed by substrate addition in presence of ATP, MgCl2 and measured after 90 mins by HTRF assay
Sequence (Q13191 whole entry): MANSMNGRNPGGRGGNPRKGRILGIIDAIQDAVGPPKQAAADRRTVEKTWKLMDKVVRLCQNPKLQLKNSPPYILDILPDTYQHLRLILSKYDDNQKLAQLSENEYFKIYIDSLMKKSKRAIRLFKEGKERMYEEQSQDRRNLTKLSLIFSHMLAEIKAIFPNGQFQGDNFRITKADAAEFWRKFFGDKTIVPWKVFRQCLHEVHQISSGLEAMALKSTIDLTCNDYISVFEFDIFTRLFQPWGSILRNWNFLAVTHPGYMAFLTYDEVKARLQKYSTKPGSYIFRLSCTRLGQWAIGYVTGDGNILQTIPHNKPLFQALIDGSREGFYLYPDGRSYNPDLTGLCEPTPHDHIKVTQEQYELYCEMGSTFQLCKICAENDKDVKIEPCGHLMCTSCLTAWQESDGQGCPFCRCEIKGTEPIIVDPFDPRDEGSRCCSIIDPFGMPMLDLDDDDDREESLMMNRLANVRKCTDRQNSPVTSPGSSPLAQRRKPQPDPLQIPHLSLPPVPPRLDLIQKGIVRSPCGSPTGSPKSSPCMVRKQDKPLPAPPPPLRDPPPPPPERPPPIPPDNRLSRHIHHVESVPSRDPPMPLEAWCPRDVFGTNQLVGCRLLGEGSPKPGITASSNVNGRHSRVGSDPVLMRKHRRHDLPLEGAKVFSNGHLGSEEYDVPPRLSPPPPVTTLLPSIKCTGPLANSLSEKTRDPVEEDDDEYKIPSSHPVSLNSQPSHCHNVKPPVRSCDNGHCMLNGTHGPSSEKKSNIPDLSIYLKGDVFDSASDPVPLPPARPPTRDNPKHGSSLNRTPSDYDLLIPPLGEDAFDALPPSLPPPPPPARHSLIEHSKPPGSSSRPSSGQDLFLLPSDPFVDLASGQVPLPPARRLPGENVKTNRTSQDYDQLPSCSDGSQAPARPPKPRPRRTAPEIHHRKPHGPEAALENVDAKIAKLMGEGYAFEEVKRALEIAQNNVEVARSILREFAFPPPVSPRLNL

Q: Which IC50 does the source give for `C[C@H](NC1(C)CCC1)c1cc2c(c(C(F)(F)F)c1)CN(c1cccc([C@@H](c3nncn3C)C3COC3)c1)C2=O` here?
A: 4 nM

Q: With `CCOc1cc([C@]2(c3nncn3C)C[C@@H](C)C2)cc(N2Cc3c(cc(CNC4(C)CCC4)cc3C(F)(F)F)C2=O)n1` as the compound, how does the IC50 read?
A: 4 nM

Q: With `Cn1cnnc1[C@]1(c2cccc(N3Cc4c(cc(CNC5(C)CCC5)cc4C(F)(F)F)C3=O)c2)C[C@H](Cl)C1` as the compound, how does the IC50 read?
A: 4 nM

Q: For `CO[C@H]1C[C@](c2cccc(N3Cc4c(cc(CNC5CC6CC6C5)cc4C(F)(F)F)C3=O)c2)(c2nncn2C)C1` (stereo partly specified), which IC50 is on record?
A: 4 nM

Q: How did the IC50 turn out when `C[C@H](NC1(C)CCC1)c1cc(Cl)c2c(c1)C(=O)N(c1cccc([C@]3(c4nncn4C)C[C@H](F)C3)c1)C2` was run?
A: 4 nM

Q: Which IC50 does the source give for `Cn1cnnc1C(c1cccc(N2Cc3c(cc(CNC4(C)CCC4)cc3C(F)(F)F)C2=O)c1)[C@H]1C[C@H](CC#N)C1` (stereo partly specified) here?
A: 3 nM
